“And” between values parts separate entries of the source, which are not always exact repeats. Equal entries are not always repeated. Inconclusive results and toxic doses are left out.
Tested on: L1210 leukemia ip in BDF1 mice, survival T/C
Test: NCI In Vivo Anticancer Drug Screen. Data for tumor model L1210 Leukemia (intraperitoneal) in B6D2F1 (BDF1) mice
Conditions: endpoint: mean survival time, higher = longer survival
Summary of the method: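 Survival endpoint. Drug-treated group vs vehicle group, expressed as T divided by C. Tumor passaged by transplantation.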

[1] = dose: 100.0 mg/kg/injection, schedule: Q04DX003 (ip), vehicle: saline
[2] = dose: 200.0 mg/kg/injection, schedule: Q04DX003 (ip), vehicle: saline
[3] = dose: 100.0 mg/kg/injection, schedule: Q04DX003 (ip), vehicle: Klucel (hydroxypropylcellulose) (HPC)
[4] = dose: 200.0 mg/kg/injection, schedule: Q04DX003 (ip), vehicle: Klucel (hydroxypropylcellulose) (HPC)
[5] = dose: 400.0 mg/kg/injection, schedule: Q04DX003 (ip), vehicle: Klucel (hydroxypropylcellulose) (HPC)

Structure (SMILES): CC1CN1c1cc(O)c(N2CC2C)cc1O (stereo not given)
- T/C (dose: 0.25 mg/kg/injection, schedule: Q01DX009 (ip), vehicle: saline): 100 % of control
- T/C (dose: 0.5 mg/kg/injection, schedule: Q01DX009 (ip), vehicle: saline): 92 % of control
- T/C (dose: 0.5 mg/kg/injection, schedule: Q01DX Z (ip), vehicle: methylcellulose (MC)): 110 % of control
- T/C (dose: 0.8 mg/kg/injection, schedule: Q01DX Z (ip), vehicle: methylcellulose (MC)): 111 % of control
- T/C (dose: 1.0 mg/kg/injection, schedule: Q01DX009 (ip), vehicle: saline): 118 % of control
- T/C (dose: 1.2 mg/kg/injection, schedule: Q01DX Z (ip), vehicle: carboxymethylcellulose (CMC)): 115 % of control
- T/C (dose: 1.2 mg/kg/injection, schedule: Q01DX Z (ip), vehicle: methylcellulose (MC)): 109 % of control and 123 % of control
- T/C (dose: 1.8 mg/kg/injection, schedule: Q01DX Z (ip), vehicle: carboxymethylcellulose (CMC)): 121 % of control
- T/C (dose: 2.0 mg/kg/injection, schedule: Q01DX009 (ip), vehicle: saline): 118 % of control
- T/C (dose: 2.7 mg/kg/injection, schedule: Q01DX Z (ip), vehicle: methylcellulose (MC)): 171 % of control
- T/C (dose: 4.0 mg/kg/injection, schedule: Q01DX Z (ip), vehicle: carboxymethylcellulose (CMC)): 120 % of control
- T/C (dose: 4.0 mg/kg/injection, schedule: Q01DX Z (ip), vehicle: methylcellulose (MC)): 109 % of control and 155 % of control and 212 % of control
- T/C (dose: 5.0 mg/kg/injection, schedule: Q01DX009 (ip), vehicle: saline): 150 % of control
- T/C (dose: 6.0 mg/kg/injection, schedule: Q01DX Z (ip), vehicle: carboxymethylcellulose (CMC)): 108 % of control
- T/C (dose: 6.0 mg/kg/injection, schedule: Q01DX Z (ip), vehicle: methylcellulose (MC)): 172 % of control and 180 % of control
- T/C (dose: 9.0 mg/kg/injection, schedule: Q01DX Z (ip), vehicle: methylcellulose (MC)): 155 % of control and 174 % of control
- T/C (dose: 10.0 mg/kg/injection, schedule: Q01DX009 (ip), vehicle: saline): 121 % of control
- T/C (dose: 13.5 mg/kg/injection, schedule: Q01DX Z (ip), vehicle: methylcellulose (MC)): 114 % of control
- T/C (dose: 20.0 mg/kg/injection, schedule: Q01DX009 (ip), vehicle: saline): 101 % of control
- T/C (dose: 20.0 mg/kg/injection, schedule: Q01DX Z (ip), vehicle: methylcellulose (MC)): 90 % of control

Structure (SMILES): C[N+](C)(C)CCS(=O)(=O)[O-]
- T/C (dose: 100.0 mg/kg/injection, schedule: Q01DX009 (ip), vehicle: saline): 90 % of control
- T/C (dose: 200.0 mg/kg/injection, schedule: Q01DX009 (ip), vehicle: saline): 95 % of control
- T/C (dose: 400.0 mg/kg/injection, schedule: Q01DX009 (ip), vehicle: saline): 95 % of control

Structure (SMILES): Cc1cc(N(CCCl)CCCl)ccc1C=Nc1ccc(C(=O)O)c(O)c1
- T/C (dose: 100.0 mg/kg/injection, schedule: Q01DX001 (ip), vehicle: carboxymethylcellulose (CMC)): 111 % of control
- T/C (dose: 200.0 mg/kg/injection, schedule: Q01DX001 (ip), vehicle: carboxymethylcellulose (CMC)): 95 % of control

Structure (SMILES): CC(=O)OC1OC(COC(=O)c2ccc([N+](=O)[O-])cc2)C(NC(=O)C(F)(F)F)C1OC(C)=O (stereo not given)
- T/C [1]: 90 % of control
- T/C [2]: 96 % of control
- T/C (dose: 400.0 mg/kg/injection, schedule: Q04DX003 (ip), vehicle: saline): 95 % of control

Structure (SMILES): [CH3][Sb]1([Cl])[CH2]CCC[CH2]1
- T/C (dose: 50.0 mg/kg/injection, schedule: Q04DX003 (ip), vehicle: saline): 97 % of control
- T/C [1]: 104 % of control
- T/C [2]: 104 % of control

Structure (SMILES): COC(=O)CCN(c1ccccc1)c1ccc(C)cc1
- T/C (dose: 100.0 mg/kg/injection, schedule: Q01DX009 (ip), vehicle: saline with Tween-80): 91 % of control
- T/C (dose: 200.0 mg/kg/injection, schedule: Q01DX009 (ip), vehicle: saline with Tween-80): 92 % of control
- T/C (dose: 400.0 mg/kg/injection, schedule: Q01DX009 (ip), vehicle: saline with Tween-80): 92 % of control

Structure (SMILES): O=[N+]([O-])c1cc([N+](=O)[O-])c(Nc2cccc3ccccc23)c([N+](=O)[O-])c1
- T/C (dose: 50.0 mg/kg/injection, schedule: Q01DX009 (ip), vehicle: Klucel (hydroxypropylcellulose) (HPC)): 94 % of control
- T/C (dose: 100.0 mg/kg/injection, schedule: Q01DX009 (ip), vehicle: Klucel (hydroxypropylcellulose) (HPC)): 99 % of control
- T/C [3]: 100 % of control
- T/C (dose: 200.0 mg/kg/injection, schedule: Q01DX009 (ip), vehicle: Klucel (hydroxypropylcellulose) (HPC)): 100 % of control
- T/C [4]: 102 % of control
- T/C [5]: 102 % of control

Structure (SMILES): C#CC(=O)C(CC)CCCC (stereo not given)
- T/C (dose: 6.25 mg/kg/injection, schedule: Q01DX009 (ip), vehicle: saline with Tween-80): 115 % of control
- T/C (dose: 12.5 mg/kg/injection, schedule: Q01DX009 (ip), vehicle: saline with Tween-80): 117 % of control

Structure (SMILES): O=C(c1ccccc1)c1nc2ccccc2nc1-c1ccccc1
- T/C [3]: 92 % of control
- T/C [4]: 92 % of control
- T/C [5]: 89 % of control
